Test results taken from ChEMBL document CHEMBL4024706 (Eur J Med Chem, 2017).

Columns and labels:
[1] = target: ALK tyrosine kinase receptor (Homo sapiens) (UniProt Q9UM73); assay: Inhibition of wild-type human partial length ALK (I1088 to E1409 residues) expressed in mammalian expression system assessed as residual activity at 1 uM by Kinomescan method relative to control
[2] = target: cAMP-dependent protein kinase catalytic subunit PRKX (Homo sapiens) (UniProt P51817); assay: Inhibition of wild-type human partial length PRKX (M1 to F358 residues) expressed in bacterial expression system assessed as residual activity at 1 uM by Kinomescan method relative to control
Chain of cAMP-dependent protein kinase catalytic subunit PRKX (Homo sapiens) (P51817 whole entry, the tested form may be a part): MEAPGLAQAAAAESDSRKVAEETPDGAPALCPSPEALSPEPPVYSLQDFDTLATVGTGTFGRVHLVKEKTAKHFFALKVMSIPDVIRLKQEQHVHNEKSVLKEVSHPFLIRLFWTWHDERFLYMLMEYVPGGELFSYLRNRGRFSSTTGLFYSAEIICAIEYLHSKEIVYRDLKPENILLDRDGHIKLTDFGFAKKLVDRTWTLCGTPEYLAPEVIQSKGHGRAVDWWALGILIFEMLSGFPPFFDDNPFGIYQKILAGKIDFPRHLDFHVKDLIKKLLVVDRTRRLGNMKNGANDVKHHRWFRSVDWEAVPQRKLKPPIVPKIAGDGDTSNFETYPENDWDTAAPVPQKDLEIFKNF

[3] = target: Dual specificity protein kinase TTK (Homo sapiens) (UniProt P33981); assay: Inhibition of wild-type human partial length TTK (N505 to V798 residues) expressed in bacterial expression system assessed as residual activity at 1 uM by Kinomescan method relative to control
[4] = target: Serine/threonine-protein kinase WNK3 (Homo sapiens) (UniProt Q9BYP7); assay: Inhibition of wild-type human partial length WNK3 (M1 to D434 residues) expressed in mammalian expression system assessed as residual activity at 1 uM by Kinomescan method relative to control
[5] = target: Casein kinase I isoform gamma-1 (Homo sapiens) (UniProt Q9HCP0); assay: Inhibition of wild-type human partial length CSNK1G1 (T15 to S353 residues) expressed in bacterial expression system assessed as residual activity at 1 uM by Kinomescan method relative to control
Chain of Casein kinase I isoform gamma-1 (Homo sapiens) (Q9HCP0 whole entry, looked up, the tested form may be a part, canonical isoform): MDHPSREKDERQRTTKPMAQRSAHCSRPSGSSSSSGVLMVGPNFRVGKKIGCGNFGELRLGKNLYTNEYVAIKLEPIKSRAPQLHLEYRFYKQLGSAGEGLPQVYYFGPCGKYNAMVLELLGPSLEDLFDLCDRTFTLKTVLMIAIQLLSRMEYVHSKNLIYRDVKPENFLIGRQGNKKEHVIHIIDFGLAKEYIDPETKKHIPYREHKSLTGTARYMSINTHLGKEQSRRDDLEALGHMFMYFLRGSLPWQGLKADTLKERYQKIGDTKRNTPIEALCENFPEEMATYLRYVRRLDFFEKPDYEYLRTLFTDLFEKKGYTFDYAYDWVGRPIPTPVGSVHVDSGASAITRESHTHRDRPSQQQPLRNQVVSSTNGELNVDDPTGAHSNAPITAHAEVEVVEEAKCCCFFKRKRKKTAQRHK

[6] = target: Mast/stem cell growth factor receptor Kit (Homo sapiens) (UniProt P10721); assay: Inhibition of wild-type human partial length autoinhibited KIT (Y545 to D952 residues) expressed in mammalian expression system assessed as residual activity at 1 uM by Kinomescan method relative to control
U2932 = assay: Cell cycle arrest in human U2932 cells assessed as increase in accumulation at G0/G1 phase after 48 hrs by propidium iodide/RNase staining based flow cytometric method; type: functional
[7] = target: MAP kinase-interacting serine/threonine-protein kinase 2 (Homo sapiens) (UniProt Q9HBH9); assay: Inhibition of wild-type human partial length MKNK2 (G63 to S388 residues) expressed in mammalian expression system assessed as residual activity at 1 uM by Kinomescan method relative to control
Chain of MAP kinase-interacting serine/threonine-protein kinase 2 (Homo sapiens) (Q9HBH9 whole entry, looked up, the tested form may be a part): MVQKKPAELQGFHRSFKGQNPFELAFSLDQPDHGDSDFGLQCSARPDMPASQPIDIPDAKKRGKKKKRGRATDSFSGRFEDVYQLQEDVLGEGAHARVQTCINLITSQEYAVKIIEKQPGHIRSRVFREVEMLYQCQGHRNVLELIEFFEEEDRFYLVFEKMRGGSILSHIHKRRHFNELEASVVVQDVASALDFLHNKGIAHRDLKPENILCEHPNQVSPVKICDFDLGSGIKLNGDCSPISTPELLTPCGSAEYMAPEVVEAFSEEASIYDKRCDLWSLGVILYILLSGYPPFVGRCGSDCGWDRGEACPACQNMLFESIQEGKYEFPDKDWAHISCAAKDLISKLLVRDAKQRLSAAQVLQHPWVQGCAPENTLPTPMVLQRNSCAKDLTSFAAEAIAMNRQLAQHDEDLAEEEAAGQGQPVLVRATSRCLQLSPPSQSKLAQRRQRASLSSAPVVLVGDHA

[8] = target: Mitotic checkpoint serine/threonine-protein kinase BUB1 (Homo sapiens) (UniProt O43683); assay: Inhibition of wild-type human partial length BUB1 (Q724 to K1085 residues) expressed in mammalian expression system assessed as residual activity at 1 uM by Kinomescan method relative to control
[9] = target: Calcium/calmodulin-dependent protein kinase type 1B (Homo sapiens) (UniProt Q6P2M8); assay: Inhibition of wild-type human partial length CAMK1B (W9 to A311 residues) expressed in mammalian expression system assessed as residual activity at 1 uM by Kinomescan method relative to control
Chain of Calcium/calmodulin-dependent protein kinase type 1B (Homo sapiens) (Q6P2M8 whole entry, the tested form may be a part): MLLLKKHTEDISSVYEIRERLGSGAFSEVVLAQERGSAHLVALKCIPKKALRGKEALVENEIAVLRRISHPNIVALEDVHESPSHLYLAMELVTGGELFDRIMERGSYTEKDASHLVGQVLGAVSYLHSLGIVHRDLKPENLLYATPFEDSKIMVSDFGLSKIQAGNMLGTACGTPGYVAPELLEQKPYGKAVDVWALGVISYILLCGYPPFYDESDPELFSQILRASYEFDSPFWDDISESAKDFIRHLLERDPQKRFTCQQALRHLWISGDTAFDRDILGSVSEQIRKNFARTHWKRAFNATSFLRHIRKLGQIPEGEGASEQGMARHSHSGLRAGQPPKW

[10] = target: cAMP-dependent protein kinase catalytic subunit alpha (Homo sapiens) (UniProt P17612); assay: Inhibition of wild-type human partial length PKAC-alpha (G10 to F351 residues) expressed in bacterial expression system assessed as residual activity at 1 uM by Kinomescan method relative to control
[11] = target: Cyclin-dependent kinase 17 (Homo sapiens) (UniProt Q00537); assay: Inhibition of wild-type human full length PCTK2 (M1 to F523 residues) expressed in bacterial expression system assessed as residual activity at 1 uM by Kinomescan method relative to control
Chain of Cyclin-dependent kinase 17 (Homo sapiens) (Q00537 whole entry, looked up, the tested form may be a part): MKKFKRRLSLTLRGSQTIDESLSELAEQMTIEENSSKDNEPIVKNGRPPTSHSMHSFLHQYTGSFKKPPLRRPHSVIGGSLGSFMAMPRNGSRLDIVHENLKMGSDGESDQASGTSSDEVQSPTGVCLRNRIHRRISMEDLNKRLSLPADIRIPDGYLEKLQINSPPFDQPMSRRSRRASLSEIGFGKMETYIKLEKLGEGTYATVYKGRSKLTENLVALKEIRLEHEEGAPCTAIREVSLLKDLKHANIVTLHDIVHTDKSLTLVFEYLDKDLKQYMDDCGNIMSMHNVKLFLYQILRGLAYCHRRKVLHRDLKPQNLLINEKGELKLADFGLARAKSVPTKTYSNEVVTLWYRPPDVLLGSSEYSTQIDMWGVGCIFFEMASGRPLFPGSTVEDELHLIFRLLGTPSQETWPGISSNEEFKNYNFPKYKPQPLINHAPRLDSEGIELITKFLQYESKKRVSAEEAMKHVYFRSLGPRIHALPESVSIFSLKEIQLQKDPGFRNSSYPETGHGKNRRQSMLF

[12] = target: Serine/threonine-protein kinase haspin (Homo sapiens) (UniProt Q8TF76); assay: Inhibition of wild-type human partial length HASPIN (I452 to K798 residues) expressed in mammalian expression system assessed as residual activity at 1 uM by Kinomescan method relative to control
[13] = target: RAF proto-oncogene serine/threonine-protein kinase (Homo sapiens) (UniProt P04049); assay: Inhibition of wild-type human partial length RAF1 (I330 to T640 residues) expressed in bacterial expression system assessed as residual activity at 1 uM by Kinomescan method relative to control
Chain of RAF proto-oncogene serine/threonine-protein kinase (Homo sapiens) (P04049 whole entry, the tested form may be a part): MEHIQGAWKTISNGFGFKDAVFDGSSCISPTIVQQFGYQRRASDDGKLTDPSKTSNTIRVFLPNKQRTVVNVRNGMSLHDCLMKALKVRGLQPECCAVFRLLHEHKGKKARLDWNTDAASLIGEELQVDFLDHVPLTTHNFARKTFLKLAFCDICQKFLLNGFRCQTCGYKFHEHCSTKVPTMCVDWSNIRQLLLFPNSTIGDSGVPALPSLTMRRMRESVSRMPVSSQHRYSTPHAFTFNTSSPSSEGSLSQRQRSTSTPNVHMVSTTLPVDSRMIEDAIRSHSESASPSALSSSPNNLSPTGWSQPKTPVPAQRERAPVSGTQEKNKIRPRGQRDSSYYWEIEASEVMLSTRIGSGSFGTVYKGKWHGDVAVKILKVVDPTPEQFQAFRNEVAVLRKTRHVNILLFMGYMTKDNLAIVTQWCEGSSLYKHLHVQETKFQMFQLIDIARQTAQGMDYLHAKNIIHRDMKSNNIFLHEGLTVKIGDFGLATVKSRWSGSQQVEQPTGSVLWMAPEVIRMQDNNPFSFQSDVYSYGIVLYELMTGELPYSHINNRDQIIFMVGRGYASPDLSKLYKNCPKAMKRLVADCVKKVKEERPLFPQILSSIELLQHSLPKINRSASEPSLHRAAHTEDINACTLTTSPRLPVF

[14] = target: Protein kinase C eta type (Homo sapiens) (UniProt P24723); assay: Inhibition of wild-type human partial length PRKCH (S324 to P683 residues) expressed in bacterial expression system assessed as residual activity at 1 uM by Kinomescan method relative to control
Chain of Protein kinase C eta type (Homo sapiens) (P24723 whole entry, the tested form may be a part): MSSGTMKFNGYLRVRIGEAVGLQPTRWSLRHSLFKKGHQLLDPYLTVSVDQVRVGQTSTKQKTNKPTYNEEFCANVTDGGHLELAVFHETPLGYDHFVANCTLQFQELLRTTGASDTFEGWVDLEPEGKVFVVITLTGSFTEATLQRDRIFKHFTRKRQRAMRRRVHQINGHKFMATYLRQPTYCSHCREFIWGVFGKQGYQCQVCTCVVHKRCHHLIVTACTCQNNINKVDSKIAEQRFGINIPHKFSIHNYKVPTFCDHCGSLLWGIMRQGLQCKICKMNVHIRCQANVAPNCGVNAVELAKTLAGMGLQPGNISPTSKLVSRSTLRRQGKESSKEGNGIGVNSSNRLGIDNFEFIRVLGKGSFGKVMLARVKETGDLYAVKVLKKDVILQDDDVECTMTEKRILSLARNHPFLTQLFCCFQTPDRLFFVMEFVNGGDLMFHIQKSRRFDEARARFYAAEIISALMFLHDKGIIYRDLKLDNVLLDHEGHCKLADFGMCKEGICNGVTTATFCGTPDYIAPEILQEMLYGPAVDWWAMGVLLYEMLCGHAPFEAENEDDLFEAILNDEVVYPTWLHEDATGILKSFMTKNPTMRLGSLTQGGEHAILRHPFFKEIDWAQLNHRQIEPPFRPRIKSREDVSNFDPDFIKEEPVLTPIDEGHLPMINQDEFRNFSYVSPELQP

[15] = target: Serine/threonine-protein kinase 38-like (Homo sapiens) (UniProt Q9Y2H1); assay: Inhibition of wild-type human partial length NDR2 (N34 to E447 residues) expressed in bacterial expression system assessed as residual activity at 1 uM by Kinomescan method relative to control
[16] = target: Serine/threonine-protein kinase 32A (Homo sapiens) (UniProt Q8WU08); assay: Inhibition of wild-type human full length YANK1 (M1 to L396 residues) expressed in mammalian expression system assessed as residual activity at 1 uM by Kinomescan method relative to control
[17] = target: Tyrosine-protein kinase receptor TYRO3 (Homo sapiens) (UniProt Q06418); assay: Inhibition of wild-type human partial length TYRO3 (S497 to T814 residues) expressed in bacterial expression system assessed as residual activity at 1 uM by Kinomescan method relative to control
[18] = target: Calcium-dependent protein kinase 1 (Plasmodium falciparum) (UniProt P62344); assay: Inhibition of wild-type Plasmodium falciparum isolate 3D7 full length CDPK1 (M1 to S524 residues) expressed in mammalian expression system assessed as residual activity at 1 uM by Kinomescan method relative to control
[19] = target: Ephrin type-A receptor 6 (Homo sapiens) (UniProt Q9UF33); assay: Inhibition of wild-type human partial length EPHA6 (Y700 to E1046 residues) expressed in bacterial expression system assessed as residual activity at 1 uM by Kinomescan method relative to control
[20] = target: Casein kinase I isoform gamma-3 (Homo sapiens) (UniProt Q9Y6M4); assay: Inhibition of wild-type human full length CSNK1G3 (M1 to K447 residues) expressed in bacterial expression system assessed as residual activity at 1 uM by Kinomescan method relative to control
[21] = target: RAC-alpha serine/threonine-protein kinase (Homo sapiens) (UniProt P31749); assay: Inhibition of wild-type human partial length AKT1 expressed in bacterial expression system assessed as residual activity at 1 uM by Kinomescan method relative to control
[22] = system: Mast/stem cell growth factor receptor Kit (Homo sapiens), P10721 [D816H]; assay: Inhibition of human partial length KIT D816H mutant (I571 to D952 residues) expressed in mammalian expression system assessed as residual activity at 1 uM by Kinomescan method relative to control
[23] = target: Ribosomal protein S6 kinase alpha-1 (Homo sapiens) (UniProt Q15418); assay: Inhibition of wild-type human partial length N-terminal RSK1 Kinase domain 1 (M1 to E388 residues) expressed in bacterial expression system assessed as residual activity at 1 uM by Kinomescan method relative to control
[24] = target: Cyclin-dependent kinase 3 (Homo sapiens) (UniProt Q00526); assay: Inhibition of wild-type human full length CDK3 (M1 to H305 residues) expressed in bacterial expression system assessed as residual activity at 1 uM by Kinomescan method relative to control

Chain of ALK tyrosine kinase receptor (Homo sapiens) (Q9UM73 19-1620 limits assumed): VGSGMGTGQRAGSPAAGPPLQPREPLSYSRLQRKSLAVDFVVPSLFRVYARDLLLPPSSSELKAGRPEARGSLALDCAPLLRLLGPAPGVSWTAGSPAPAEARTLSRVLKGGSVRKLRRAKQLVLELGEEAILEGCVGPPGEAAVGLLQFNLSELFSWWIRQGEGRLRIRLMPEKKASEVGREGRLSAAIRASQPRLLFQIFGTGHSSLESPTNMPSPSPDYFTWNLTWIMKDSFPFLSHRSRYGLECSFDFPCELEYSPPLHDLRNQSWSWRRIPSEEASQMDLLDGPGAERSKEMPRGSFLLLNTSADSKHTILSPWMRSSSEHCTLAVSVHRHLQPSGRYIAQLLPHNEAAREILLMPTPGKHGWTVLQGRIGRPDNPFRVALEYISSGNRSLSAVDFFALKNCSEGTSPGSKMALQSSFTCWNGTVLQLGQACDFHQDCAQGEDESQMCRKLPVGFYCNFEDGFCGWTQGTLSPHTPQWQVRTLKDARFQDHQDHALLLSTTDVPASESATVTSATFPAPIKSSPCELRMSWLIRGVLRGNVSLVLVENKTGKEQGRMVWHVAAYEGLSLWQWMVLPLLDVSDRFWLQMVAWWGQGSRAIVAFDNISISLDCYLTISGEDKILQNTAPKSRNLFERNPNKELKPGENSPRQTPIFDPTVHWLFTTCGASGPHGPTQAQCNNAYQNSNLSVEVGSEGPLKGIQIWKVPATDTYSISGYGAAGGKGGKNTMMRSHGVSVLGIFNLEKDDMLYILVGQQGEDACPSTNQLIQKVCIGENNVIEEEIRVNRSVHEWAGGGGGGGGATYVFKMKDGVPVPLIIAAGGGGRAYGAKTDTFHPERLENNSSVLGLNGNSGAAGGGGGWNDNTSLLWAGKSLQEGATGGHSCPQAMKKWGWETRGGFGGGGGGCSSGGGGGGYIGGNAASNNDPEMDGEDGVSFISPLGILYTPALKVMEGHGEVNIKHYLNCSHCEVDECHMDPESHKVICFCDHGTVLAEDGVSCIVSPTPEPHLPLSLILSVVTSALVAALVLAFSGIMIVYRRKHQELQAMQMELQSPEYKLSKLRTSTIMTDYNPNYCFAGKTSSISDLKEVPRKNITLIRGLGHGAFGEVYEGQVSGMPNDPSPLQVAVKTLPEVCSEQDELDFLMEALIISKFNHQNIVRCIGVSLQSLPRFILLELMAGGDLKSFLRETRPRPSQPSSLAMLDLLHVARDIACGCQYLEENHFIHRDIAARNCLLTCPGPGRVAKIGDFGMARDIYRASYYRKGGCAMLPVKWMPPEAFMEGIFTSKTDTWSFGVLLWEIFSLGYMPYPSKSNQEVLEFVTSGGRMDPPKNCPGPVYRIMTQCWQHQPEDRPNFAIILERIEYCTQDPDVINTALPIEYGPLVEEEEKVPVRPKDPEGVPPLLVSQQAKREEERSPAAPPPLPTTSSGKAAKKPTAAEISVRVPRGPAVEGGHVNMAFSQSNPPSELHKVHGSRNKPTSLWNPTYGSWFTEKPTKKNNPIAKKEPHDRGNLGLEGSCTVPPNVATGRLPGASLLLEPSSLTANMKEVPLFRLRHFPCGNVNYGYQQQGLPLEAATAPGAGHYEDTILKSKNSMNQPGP

## C=CC(=O)Nc1cc(Nc2cc(-c3cccc(NC(=O)c4ccc(C(C)(C)C)cc4)c3C)cn(C)c2=O)ccc1C(=O)N1CCOCC1
[1]
  Activity: 94%
[2]
  Activity: 98%
[3]
  Activity: 99%
[4]
  Activity: 94%
[5]
  Activity: 98%
[6]
  Activity: 100%
U2932
  Activity: Dose-dependent effect
[7]
  Activity: 89%
[8]
  Activity: 100%
[9]
  Activity: 85%
[10]
  Activity: 95%
[11]
  Activity: 100%
[12]
  Activity: 54%
[13]
  Activity: 99%
[14]
  Activity: 100%
[15]
  Activity: 100%
[16]
  Activity: 83%
[17]
  Activity: 75%
[18]
  Activity: 85%
[19]
  Activity: 93%
[20]
  Activity: 90%
[21]
  Activity: 100%
[22]
  Activity: 94%
[23]
  Activity: 87%
[24]
  Activity: 97%
